Structures can show the parent of a compound that is named as a salt.

Among the data in patent publication US9067871B2, “Aminotetraline derivatives, pharmaceutical compositions containing them, and their use in therapy” (ABBVIE DEUTSCHLAND GMBH & CO KG, priority 2009, dated 2015) are Ki values, retold here.

human GlyT1c transporter, sequence (P48067 whole entry): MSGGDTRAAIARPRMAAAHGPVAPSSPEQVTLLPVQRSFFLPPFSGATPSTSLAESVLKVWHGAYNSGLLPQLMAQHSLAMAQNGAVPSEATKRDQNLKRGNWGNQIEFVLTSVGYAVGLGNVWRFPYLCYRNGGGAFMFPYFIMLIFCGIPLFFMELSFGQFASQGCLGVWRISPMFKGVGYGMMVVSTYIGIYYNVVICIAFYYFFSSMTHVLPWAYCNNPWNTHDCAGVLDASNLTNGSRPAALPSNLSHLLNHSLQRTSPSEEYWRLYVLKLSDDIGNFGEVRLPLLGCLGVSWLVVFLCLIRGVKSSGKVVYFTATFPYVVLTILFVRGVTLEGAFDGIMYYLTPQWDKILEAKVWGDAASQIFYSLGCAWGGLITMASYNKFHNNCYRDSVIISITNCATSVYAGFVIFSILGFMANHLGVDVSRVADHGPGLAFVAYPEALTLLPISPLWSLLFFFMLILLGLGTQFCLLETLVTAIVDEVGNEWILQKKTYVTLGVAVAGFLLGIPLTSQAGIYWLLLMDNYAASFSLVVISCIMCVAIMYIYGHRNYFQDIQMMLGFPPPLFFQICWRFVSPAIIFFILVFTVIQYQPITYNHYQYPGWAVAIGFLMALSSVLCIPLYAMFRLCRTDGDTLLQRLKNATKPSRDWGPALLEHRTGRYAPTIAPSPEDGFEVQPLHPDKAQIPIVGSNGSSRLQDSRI

The first assay concerns the target human GlyT1c transporter (Homo sapiens (Human), UniProt P48067). Put plainly: Radioligand binding assay using recombinant CHO cell membranes expressing human GlyT1. The following applies: human GlyT1c-expressing CHO cell membranes; read-out: radioligand binding Kiapp. An excerpt:
2. Radioligand binding assays using recombinant CHO cell membranes expressing human GlyT1: […]
As to `CCCS(=O)(=O)NCCCc1ccc2c(c1)C(Cc1ccccc1)C(N1CCCC1)CC2` (centres unmarked) [Example 265, Propane-1-sulfonic acid [3-(8-benzyl-7-pyrrolidin-1-yl-5,6,7,8-tetrahydro-naphthalen-2-yl)propyl]-amide hydrochloride], the Ki is at most 1000 nM. Consider `O=S(=O)(CC1CC1)NCCCc1ccc2c(c1)C(Cc1ccccc1)C(N1CCCC1)CC2` (centres unmarked) [Example 266, N-{3-[8-Benzyl-7-(pyrrolidin-1-yl)-5,6,7,8-tetrahydronaphthalen-2-yl]propyl}-1-cyclopropylmethanesulfonamide hydrochloride], for which the Ki is at most 1000 nM.

Regarding `Cn1ccc(S(=O)(=O)NCCOc2ccc3c(c2)C(Cc2cccc(F)c2)C(N2CCCC2)CC3)c1` (centres unmarked) [Example 267, N-(2-{[8-(3-Fluorobenzyl)-7-(pyrrolidin-1-yl)-5,6,7,8-tetrahydronaphthalen-2-yl]oxy}ethyl)-1-methyl-1H-pyrrole-3-sulfonamide], the Ki is at most 100 nM.

Take `Cn1ccc(S(=O)(=O)NCCOc2ccc3c(c2)C(Cc2ccccc2)C(N2CCC2)CC3)c1` (centres unmarked) [Example 268, N-(2-{[7-(Azetidin-1-yl)-8-benzyl-5,6,7,8-tetrahydronaphthalen-2-yl]oxy}ethyl)-1-methyl-1H-pyrrole-3-sulfonamide]: the Ki is at most 10 nM. Turning to `Cn1ccc(S(=O)(=O)NCCOc2ccc3c(c2)C(Cc2cccc(F)c2)C(N2CCC2)CC3)c1` (centres unmarked) [Example 269, 1-Methyl-1H-pyrrole-3-sulfonic acid {2-[7-azetidin-1-yl-8-(3-fluoro-benzyl)-5,6,7,8-tetrahydro-naphthalen-2-yloxy]-ethyl}-amide], the Ki was at most 10 nM.

In the case of `Cn1ccc(S(=O)(=O)NCCOc2ccc3c(c2)C(Cc2cc(F)cc(F)c2)C(NC=O)CC3)c1` (centres unmarked) [Example 271, N-(2-{[8-(3,5-Difluorobenzyl)-7-(formylamino)-5,6,7,8-tetrahydronaphthalen-2-yl]oxy}ethyl)-1-methyl-1H-pyrrole-3-sulfonamide], the Ki is at most 100 nM. As to `CCCS(=O)(=O)NCCCc1ccc2c(c1)C(Cc1ccc(Cl)c(Cl)c1)C(NC(C)C)CC2` (centres unmarked) [Example 272, N-{3-[8-(3,4-Dichlorobenzyl)-7-(propan-2-ylamino)-5,6,7,8-tetrahydronaphthalen-2-yl]propyl}propane-1-sulfonamide], the Ki was at most 100 nM. Same read-out and setting: next, `CCCS(=O)(=O)NCCCc1ccc2c(c1)C(Cc1ccccc1)C(NC(C)C)CC2` (centres unmarked) [Example 273, N-{3-[8-Benzyl-7-(propan-2-ylamino)-5,6,7,8-tetrahydronaphthalen-2-yl]propyl}propane-1-sulfonamide hydrochloride]: at most 1000 nM.

Regarding `CCN(CC)C1CCc2ccc(CCCNS(=O)(=O)CC3CC3)cc2C1Cc1ccc(Cl)cc1` (centres unmarked) [Example 274, N-{3-[8-(4-Chlorobenzyl)-7-(diethylamino)-5,6,7,8-tetrahydronaphthalen-2-yl]propyl}-1-cyclopropylmethanesulfonamide hydrochloride], the Ki is at most 100 nM. The same measure, in the same setting: next, `CCCS(=O)(=O)N(C)Cc1ccc2c(c1)C(Cc1ccccc1)C(NC)CC2` (centres unmarked) [Example 275, N-{[8-Benzyl-7-(methylamino)-5,6,7,8-tetrahydronaphthalen-2-yl]methyl}-N-methylpropane-1-sulfonamide trifluoroacetate]: at most 100 nM. For the molecule `CCCS(=O)(=O)NCC#Cc1ccc2c(c1)C(Cc1ccccc1)C(NC(C)=O)CC2` (centres unmarked) [Example 276, N-[1-Benzyl-7-{3-[(propylsulfonyl)amino]prop-1-yn-1-yl}-1,2,3,4-tetrahydronaphthalen-2-yl]acetamide], the Ki was at most 10000 nM. Regarding `CCCS(=O)(=O)N(CCOc1ccc2c(c1)C(Cc1ccccc1)C(NC(=O)OCC)CC2)C1CC1` (centres unmarked) [Example 280], the Ki is at most 10000 nM.

As for `CCCS(=O)(=O)N(CCOc1ccc2c(c1)C(Cc1cccc(Cl)c1)C(N)CC2)C1CC1` (centres unmarked) [Example 281, Propane-1-sulfonic acid {2-[7-amino-8-(3-chloro-benzyl)-5,6,7,8-tetrahydro-naphthalen-2-yloxy]-ethyl}-cyclopropyl-amide hydrochloride], the Ki was at most 100 nM. `CCCS(=O)(=O)N(CCOc1ccc2c(c1)C(Cc1ccccc1)C(N)CC2)C1CC1` (centres unmarked) [Example 282, Propane-1-sulfonic acid [2-(7-amino-8-benzyl-5,6,7,8-tetrahydro-naphthalen-2-yloxy)ethyl]-cyclopropyl-amide hydrochloride]: the Ki is at most 100 nM. Regarding `CCCS(=O)(=O)N1CC(c2ccc3c(c2)C(Cc2cccc(Cl)c2)C(N)CC3)C1` (centres unmarked) [Example 283, 1-(3-Chloro-benzyl)-7-[1-(propane-1-sulfonyl)-azetidin-3-yl]-1,2,3,4-tetrahydro-naphthalen-2-ylamine hydrochloride], the Ki was at most 1000 nM.

For `CCCS(=O)(=O)N1CC(c2ccc3c(c2)C(Cc2ccccc2)C(N)CC3)C1` (centres unmarked) [Example 284, 1-Benzyl-7-[1-(propane-1-sulfonyl)-azetidin-3-yl]-1,2,3,4-tetrahydro-naphthalen-2-ylamine hydrochloride], the Ki is at most 1000 nM. As for `CCCS(=O)(=O)N1CC(COc2ccc3c(c2)C(Cc2cccc(Cl)c2)C(NC(=O)OCC)CC3)C1` (centres unmarked) [Example 285, {1-(3-Chloro-benzyl)-7-[1-(propane-1-sulfonyl)-azetidin-3-ylmethoxy]-1,2,3,4-tetrahydronaphthalen-2-yl}-carbamic acid ethyl ester], the Ki is at most 10000 nM.

As to `CCCS(=O)(=O)N1CC(COc2ccc3c(c2)C(Cc2cccc(Cl)c2)C(N)CC3)C1` (centres unmarked) [Example 286, 1-(3-Chloro-benzyl)-7-[1-(propane-1-sulfonyl)-azetidin-3-ylmethoxy]-1,2,3,4-tetrahydronaphthalen-2-ylamine hydrochloride], the Ki is at most 10000 nM. As for `CCOC(=O)NC1CCc2ccc(OCCNS(=O)(=O)CC3CC3)cc2C1Cc1cccc(Cl)c1` (centres unmarked) [Example 287, [1-(3-Chloro-benzyl)-7-(2-cyclopropylmethanesulfonylamino-ethoxy)-1,2,3,4-tetrahydronaphthalen-2-yl]-carbamic acid ethyl ester], the Ki was at most 10000 nM.

Consider `NC1CCc2ccc(OCCNS(=O)(=O)CC3CC3)cc2C1Cc1cccc(Cl)c1` (centres unmarked) [Example 288, N-{2-[7-Amino-8-(3-chloro-benzyl)-5,6,7,8-tetrahydro-naphthalen-2-yloxy]-ethyl}-C-cyclopropyl-methanesulfonamide hydrochloride], for which the Ki was at most 10 nM. For `CCOC(=O)NC1CCc2ccc(OCC3CN(S(=O)(=O)CC4CC4)C3)cc2C1Cc1cccc(Cl)c1` (centres unmarked) [Example 289, [1-(3-Chloro-benzyl)-7-(1-cyclopropylmethanesulfonyl-azetidin-3-ylmethoxy)-1,2,3,4-tetrahydro-naphthalen-2-yl]-carbamic acid ethyl ester], the Ki was above 10000 nM.

For `CCOC(=O)NC1CCc2ccc(OCCN(C)S(=O)(=O)CC3CC3)cc2C1Cc1cccc(Cl)c1` (centres unmarked) [Example 290, {1-(3-Chloro-benzyl)-7-[2-(cyclopropylmethanesulfonyl-methyl-amino)-ethoxy]-1,2,3,4-tetrahydro-naphthalen-2-yl}-carbamic acid ethyl ester], the Ki is at most 10000 nM.

In the case of `CN(CCOc1ccc2c(c1)C(Cc1cccc(Cl)c1)C(N)CC2)S(=O)(=O)CC1CC1` (centres unmarked) [Example 291, N-{2-[7-Amino-8-(3-chloro-benzyl)-5,6,7,8-tetrahydro-naphthalen-2-yloxy]-ethyl}-C-cyclopropyl-N-methyl-methanesulfonamide], the Ki was at most 10 nM.

Consider `CCCS(=O)(=O)N1CC(COc2ccc3c(c2)C(Cc2ccccc2)C(N)CC3)C1` (centres unmarked) [Example 292, 1-Benzyl-7-[1-(propane-1-sulfonyl)-azetidin-3-ylmethoxy]-1,2,3,4-tetrahydro-naphthalen-2-ylamine hydrochloride], for which the Ki is at most 1000 nM. As to `CCCS(=O)(=O)NCCOc1ccc2c(c1)C(Cc1ccccc1Cl)C(N)CC2` (centres unmarked) [Example 293, Propane-1-sulfonic acid {2-[7-amino-8-(2-chloro-benzyl)-5,6,7,8-tetrahydro-naphthalen-2-yloxy]-ethyl}-amide hydrochloride], the Ki was at most 1000 nM. On to `NC1CCc2ccc(OCCNS(=O)(=O)C3CC3)cc2C1Cc1ccccc1Cl` (centres unmarked) [Example 294, Cyclopropanesulfonic acid {2-[7-amino-8-(2-chloro-benzyl)-5,6,7,8-tetrahydro-naphthalen-2-yloxyl]-ethyl}-amide hydrochloride], for which the Ki was at most 10000 nM. Same read-out and setting: next, `NC1CCc2ccc(OCCNS(=O)(=O)CC3CC3)cc2C1Cc1ccccc1Cl` (centres unmarked) [Example 295, N-{2-[7-Amino-8-(2-chloro-benzyl)-5,6,7,8-tetrahydro-naphthalen-2-yloxy]-ethyl}-C-cyclopropyl-methanesulfonamide hydrochloride]: at most 1000 nM; `NC1CCc2ccc(CCCNS(=O)(=O)CC3CC3)cc2C1Cc1cccc(Cl)c1` (centres unmarked) [Example 296, N-{3-[7-Amino-8-(3-chloro-benzyl)-5,6,7,8-tetrahydro-naphthalen-2-yl]-propyl}-C-cyclopropyl-methanesulfonamide hydrochloride]: at most 100 nM. Take `CCCS(=O)(=O)NCCCc1ccc2c(c1)C(Cc1cccc(Cl)c1)C(N)CC2` (centres unmarked) [Example 297, Propane-1-sulfonic acid {3-[7-amino-8-(3-chloro-benzyl)-5,6,7,8-tetrahydro-naphthalen-2-yl]-propyl}-amide hydrochloride]: the Ki was at most 100 nM. As for `CCOC(=O)NC1CCc2ccc(OCCNS(=O)(=O)c3cn(C)cn3)cc2C1Cc1ccccc1Cl` (centres unmarked) [Example 298, {1-(2-Chloro-benzyl)-7-[2-(1-methyl-1H-imidazole-4-sulfonylamino)-ethoxy]-1,2,3,4-tetrahydro-naphthalen-2-yl}-carbamic acid ethyl ester], the Ki was at most 10000 nM. Still for that read-out and setting: next, `CCOC(=O)NC1CCc2ccc(OCCNS(=O)(=O)c3cnn(C)c3)cc2C1Cc1ccccc1Cl` (centres unmarked) [Example 299, {1-(2-Chloro-benzyl)-7-[2-(1-methyl-1H-pyrazole-4-sulfonylamino)-ethoxy]-1,2,3,4-tetrahydro-naphthalen-2-yl}-carbamic acid ethyl ester]: above 10000 nM.

Still in this assay, the particulars now being: read-out: radioligand binding Kiapp.
As to `CCCS(=O)(=O)N(CCOc1ccc2c(c1)C(Cc1cccc(Cl)c1)C(NC(=O)OCC)CC2)C1CC1` (centres unmarked) [Example 279], the Ki is at most 10000 nM.
